How the values were obtained:
Experiment in all cases: Test B preemergence/postemergence greenhouse plant response rating 0 to 10
giant foxtail = assay type: in vivo, Setaria faberii; conditions: for Plant response rating, Giant foxtail: 0 to 10 scale
Summary of the method: (§1)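 Postemergence treatment of plants two to eighteen cm tall ran alongside preemergence treatment of planted seed, each using compound in a non-phytotoxic solvent.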

wild buckwheat = assay type: in vivo, Polygonum convolvulus; conditions: for Plant response rating, Wild buckwheat: 0 to 10 scale
Summary of the method: as §1

velvetleaf = assay type: in vivo, Abutilon theophrasti; conditions: for Plant response rating, Velvetleaf: 0 to 10 scale
Summary of the method: as §1

rice = assay type: in vivo, Oryza sativa; conditions: for Plant response rating, Rice: 0 to 10 scale
Summary of the method: as §1

morningglory = assay type: in vivo, Ipomoea hederacea; conditions: for Plant response rating, Morningglory: 0 to 10 scale
Summary of the method: as §1

cocklebur = assay type: in vivo, Xanthium pensylvanicum; conditions: for Plant response rating, Cocklebur: 0 to 10 scale
Summary of the method: as §1

barnyardgrass = assay type: in vivo, Echinochloa crus-galli; conditions: for Plant response rating, Barnyardgrass: 0 to 10 scale
Summary of the method: as §1

lambsquarters = assay type: in vivo, Chenopodium album; conditions: for Plant response rating, Lambsquarter: 0 to 10 scale
Summary of the method: as §1

cheatgrass = assay type: in vivo, Bromus secalinus; conditions: for Plant response rating, Cheatgrass: 0 to 10 scale
Summary of the method: as §1

rape = assay type: in vivo, Brassica napus; conditions: for Plant response rating, Rape: 0 to 10 scale
Summary of the method: as §1

chickweed = assay type: in vivo, Stellaria media; conditions: for Plant response rating, Chickweed: 0 to 10 scale
Summary of the method: as §1

crabgrass = assay type: in vivo, Digitaria spp.; conditions: for Plant response rating, Crabgrass: 0 to 10 scale
Summary of the method: as §1

wild oat = assay type: in vivo, Avena fatua; conditions: for Plant response rating, Wild oat: 0 to 10 scale
Summary of the method: as §1

sorghum = assay type: in vivo, Sorghum bicolor; conditions: for Plant response rating, Sorghum: 0 to 10 scale
Summary of the method: as §1

barley = assay type: in vivo, Hordeum vulgare; conditions: for Plant response rating, Barley: 0 to 10 scale
Summary of the method: as §1

soybean = assay type: in vivo, Glycine max; conditions: for Plant response rating, Soybean: 0 to 10 scale
Summary of the method: as §1

bedstraw = assay type: in vivo, Galium aparine; conditions: for Plant response rating, Bedstraw: 0 to 10 scale
Summary of the method: as §1

cotton = assay type: in vivo, Gossypium hirsutum; conditions: for Plant response rating, Cotton: 0 to 10 scale
Summary of the method: as §1

blackgrass = assay type: in vivo, Alopecurus myosuroides; conditions: for Plant response rating, Blackgrass: POSTEMERGENCE, 0 to 10 scale
Summary of the method: as §1

corn = assay type: in vivo, Zea mays; conditions: for Plant response rating, Corn: 0 to 10 scale
Summary of the method: as §1

sugar beet = assay type: in vivo, Beta vulgaris; conditions: for Plant response rating, Sugar beet: 0 to 10 scale
Summary of the method: as §1

purple nutsedge = assay type: in vivo, Cyperus rotundus; conditions: for Plant response rating, Nutsedge: 0 to 10 scale
Summary of the method: as §1

wheat = assay type: in vivo, Triticum aestivum; conditions: for Plant response rating, Wheat: 0 to 10 scale
Summary of the method: as §1

Clc1cc(Cl)c(-c2nn3c(c2Cl)CCCC3)cc1OCC1CC1 [Compound 69]
0: Plant response rating, Wild buckwheat (wild buckwheat; PREEMERGENCE, Rate 50 g/ha) | Plant response rating (0 to 10 scale), Wild buckwheat (wild buckwheat; PREEMERGENCE, Rate 200 g/ha) | Plant response rating, Rice (rice; PREEMERGENCE, Rate 50 g/ha) | Plant response rating (0 to 10 scale), Rice (rice; PREEMERGENCE, Rate 200 g/ha) | Plant response rating, Morningglory (morningglory; PREEMERGENCE, Rate 50 g/ha) | Plant response rating (0 to 10 scale), Morningglory (morningglory; PREEMERGENCE, Rate 200 g/ha) | Plant response rating, Cocklebur (cocklebur; PREEMERGENCE, Rate 50 g/ha) | Plant response rating (0 to 10 scale), Cocklebur (cocklebur; PREEMERGENCE, Rate 200 g/ha) | Plant response rating, Barnyardgrass (barnyardgrass; PREEMERGENCE, Rate 50 g/ha) | Plant response rating, Cheatgrass (cheatgrass; PREEMERGENCE, Rate 50 g/ha) | Plant response rating, Chickweed (chickweed; PREEMERGENCE, Rate 50 g/ha) | Plant response rating (0 to 10 scale), Chickweed (chickweed; PREEMERGENCE, Rate 200 g/ha) | Plant response rating, Wild oat (wild oat; PREEMERGENCE, Rate 50 g/ha) | Plant response rating (0 to 10 scale), Wild oat (wild oat; PREEMERGENCE, Rate 200 g/ha) | Plant response rating, Sorghum (sorghum; PREEMERGENCE, Rate 50 g/ha) | Plant response rating (0 to 10 scale), Sorghum (sorghum; PREEMERGENCE, Rate 200 g/ha) | Plant response rating, Barley (barley; PREEMERGENCE, Rate 50 g/ha) | Plant response rating (0 to 10 scale), Barley (barley; PREEMERGENCE, Rate 200 g/ha) | Plant response rating, Soybean (soybean; PREEMERGENCE, Rate 50 g/ha) | Plant response rating (0 to 10 scale), Soybean (soybean; PREEMERGENCE, Rate 200 g/ha) | Plant response rating, Bedstraw (bedstraw; PREEMERGENCE, Rate 50 g/ha) | Plant response rating, Cotton (cotton; PREEMERGENCE, Rate 50 g/ha) | Plant response rating (0 to 10 scale), Cotton (cotton; PREEMERGENCE, Rate 200 g/ha) | Plant response rating, Corn (corn; PREEMERGENCE, Rate 50 g/ha) | Plant response rating (0 to 10 scale), Corn (corn; PREEMERGENCE, Rate 200 g/ha) | Plant response rating, Nutsedge (purple nutsedge; PREEMERGENCE, Rate 50 g/ha) | Plant response rating (0 to 10 scale), Nutsedge (purple nutsedge; PREEMERGENCE, Rate 200 g/ha) | Plant response rating, Wheat (wheat; PREEMERGENCE, Rate 50 g/ha)
3: Plant response rating, Cheatgrass (cheatgrass; POSTEMERGENCE, Rate 50 g/ha) | Plant response rating (0 to 10 scale), Rape (rape; PREEMERGENCE, Rate 200 g/ha) | Plant response rating, Chickweed (chickweed; Rate 200 g/ha, POSTEMERGENCE) | Plant response rating, Wild oat (wild oat; POSTEMERGENCE, Rate 50 g/ha) | Plant response rating, Blackgrass (blackgrass; Rate 50 g/ha) | Plant response rating, Corn (corn; POSTEMERGENCE, Rate 50 g/ha) | Plant response rating, Corn (corn; Rate 200 g/ha, POSTEMERGENCE) | Plant response rating, Sugar beet (sugar beet; PREEMERGENCE, Rate 50 g/ha)
9: Plant response rating (0 to 10 scale), Velvetleaf (velvetleaf; PREEMERGENCE, Rate 200 g/ha) | Plant response rating, Velvetleaf (velvetleaf; Rate 200 g/ha, POSTEMERGENCE) | Plant response rating, Lambsquarter (lambsquarters; PREEMERGENCE, Rate 50 g/ha) | Plant response rating, Sugar beet (sugar beet; Rate 200 g/ha, POSTEMERGENCE)
4: Plant response rating, Barnyardgrass (barnyardgrass; POSTEMERGENCE, Rate 50 g/ha) | Plant response rating (0 to 10 scale), Cheatgrass (cheatgrass; PREEMERGENCE, Rate 200 g/ha) | Plant response rating, Crabgrass (crabgrass; POSTEMERGENCE, Rate 50 g/ha) | Plant response rating, Crabgrass (crabgrass; Rate 200 g/ha, POSTEMERGENCE) | Plant response rating, Wild oat (wild oat; Rate 200 g/ha, POSTEMERGENCE) | Plant response rating, Sorghum (sorghum; POSTEMERGENCE, Rate 50 g/ha) | Plant response rating, Barley (barley; POSTEMERGENCE, Rate 50 g/ha) | Plant response rating, Barley (barley; Rate 200 g/ha, POSTEMERGENCE) | Plant response rating, Wheat (wheat; POSTEMERGENCE, Rate 50 g/ha)
2: Plant response rating, Giant foxtail (giant foxtail; PREEMERGENCE, Rate 50 g/ha) | Plant response rating, Rape (rape; PREEMERGENCE, Rate 50 g/ha) | Plant response rating, Chickweed (chickweed; POSTEMERGENCE, Rate 50 g/ha) | Plant response rating, Crabgrass (crabgrass; PREEMERGENCE, Rate 50 g/ha) | Plant response rating, Soybean (soybean; POSTEMERGENCE, Rate 50 g/ha) | Plant response rating (0 to 10 scale), Blackgrass (blackgrass; PREEMERGENCE, Rate 200 g/ha) | Plant response rating, Nutsedge (purple nutsedge; POSTEMERGENCE, Rate 50 g/ha) | Plant response rating, Nutsedge (purple nutsedge; Rate 200 g/ha, POSTEMERGENCE) | Plant response rating (0 to 10 scale), Wheat (wheat; PREEMERGENCE, Rate 200 g/ha)
1: Plant response rating, Velvetleaf (velvetleaf; PREEMERGENCE, Rate 50 g/ha) | Plant response rating (0 to 10 scale), Barnyardgrass (barnyardgrass; PREEMERGENCE, Rate 200 g/ha)
7: Plant response rating, Morningglory (morningglory; POSTEMERGENCE, Rate 50 g/ha) | Plant response rating, Morningglory (morningglory; Rate 200 g/ha, POSTEMERGENCE) | Plant response rating, Bedstraw (bedstraw; Rate 200 g/ha, POSTEMERGENCE)
6: Plant response rating, Rice (rice; Rate 200 g/ha, POSTEMERGENCE) | Plant response rating, Barnyardgrass (barnyardgrass; Rate 200 g/ha, POSTEMERGENCE) | Plant response rating, Cheatgrass (cheatgrass; Rate 200 g/ha, POSTEMERGENCE) | Plant response rating, Rape (rape; POSTEMERGENCE, Rate 50 g/ha) | Plant response rating, Sorghum (sorghum; Rate 200 g/ha, POSTEMERGENCE) | Plant response rating (0 to 10 scale), Bedstraw (bedstraw; PREEMERGENCE, Rate 200 g/ha) | Plant response rating (0 to 10 scale), Sugar beet (sugar beet; PREEMERGENCE, Rate 200 g/ha) | Plant response rating, Wheat (wheat; Rate 200 g/ha, POSTEMERGENCE)
10: Plant response rating, Wild buckwheat (wild buckwheat; POSTEMERGENCE, Rate 50 g/ha) | Plant response rating, Wild buckwheat (wild buckwheat; Rate 200 g/ha, POSTEMERGENCE) | Plant response rating, Velvetleaf (velvetleaf; POSTEMERGENCE, Rate 50 g/ha) | Plant response rating (0 to 10 scale), Lambsquarter (lambsquarters; PREEMERGENCE, Rate 200 g/ha) | Plant response rating, Cotton (cotton; POSTEMERGENCE, Rate 50 g/ha) | Plant response rating, Cotton (cotton; Rate 200 g/ha, POSTEMERGENCE) | Plant response rating, Sugar beet (sugar beet; POSTEMERGENCE, Rate 50 g/ha)
8: Plant response rating, Cocklebur (cocklebur; POSTEMERGENCE, Rate 50 g/ha) | Plant response rating, Cocklebur (cocklebur; Rate 200 g/ha, POSTEMERGENCE) | Plant response rating, Lambsquarter (lambsquarters; POSTEMERGENCE, Rate 50 g/ha) | Plant response rating, Lambsquarter (lambsquarters; Rate 200 g/ha, POSTEMERGENCE) | Plant response rating, Rape (rape; Rate 200 g/ha, POSTEMERGENCE)
5: Plant response rating, Giant foxtail (giant foxtail; POSTEMERGENCE, Rate 50 g/ha) | Plant response rating (0 to 10 scale), Giant foxtail (giant foxtail; PREEMERGENCE, Rate 200 g/ha) | Plant response rating, Giant foxtail (giant foxtail; Rate 200 g/ha, POSTEMERGENCE) | Plant response rating, Rice (rice; POSTEMERGENCE, Rate 50 g/ha) | Plant response rating (0 to 10 scale), Crabgrass (crabgrass; PREEMERGENCE, Rate 200 g/ha) | Plant response rating, Soybean (soybean; Rate 200 g/ha, POSTEMERGENCE) | Plant response rating, Bedstraw (bedstraw; POSTEMERGENCE, Rate 50 g/ha) | Plant response rating, Blackgrass (blackgrass; Rate 200 g/ha)

Reference: patent US6358885B1, “Substituted phenylheterocyclic herbicides” (Mississippi State University, priority 1992, dated 2002)
